Data on 14 compounds can be found in US4616028A, “Substituted 2,3,4,9-tetrahydro-1H-carbazole-1-acetic acid derivatives, compositions and use” (American Home Products Corporation, priority 1985, dated 1986).

Structures can show the parent of a compound that is named as a salt.

The subject of one assay is Adjuvant Edema. Nature of the assay: Preventative Adjuvant Edema (Freund's complete adjuvant, hind paw volume). The format is in vivo, rat (male Sprague Dawley). Particulars: for ED50 / inhibition in vivo at 25 mg/kg / inhibition in vivo at 10 mg/kg: po; for ED50: ED50, rat (second results table); for inhibition in vivo at 25 mg/kg / inhibition in vivo at 10 mg/kg: 72 h, rat (second results table), read-out: Preventative Adjuvant Edema percent inhibition; for Preventative Adjuvant Edema % Inhibition: p.o., rat. Here is the method:
This test is a primary screen for anti-inflammatory drugs.
Male Sprague Dawley rats (180-200 g) are used. The animals have free access water but food is withdrawn 18 hours before testing.
Drug Preparations and Administration:
Freund's complete adjuvant is prepared by suspending 5 mg killed and dried Mycobacterium butyricum (Difco) in 1 ml liquid paraffin. The test compounds are dissolved in distilled water or suspended in distilled water with a few drops of Tween 80 according to their solubility. For primary screening all drugs are administrated by gastric lavage at the arbitrary dosage of 100 mg/kg, p.o. in a volume of 0.5 ml/100 g body weight to groups of 10 animals.
The method is essentially that described by Wax et al., J. Pharmacol. Exp. Ther., 192, 166-171 (1975). Groups of rats are injected intradermally in the left hind paw with 0.1 ml of Freund's complete adjuvant. The test compound or vehicle is administrated before the adjuvant, 24 hours and 48 hours after the adjuvant (day 0, 1 and 2). The injected hind paw volume is measured before the injection of adjuvant and 24 hrs. after the last drug administration (day 3) by means of a plethysmometer (Buxco Electronics Inc.). The difference between then hind paw volume on day 0 and day 3 represents the edema volume. Phenylbutazone (50 mg/kg, p.o.) is included as a positive control.
The mean edema volume (expressed as ml±SEM) is calculated for each group and the percentage protection conferred by the drug is calculated:
where c is the mean edema volume for the untreated controls and t is the mean edema volume for the drug treated group.

In another assay the test system is Phenylquinone Writhing. The assay can be described thus: Phenylquinone-induced writhing in mice. The assay is classed as in vivo, mouse (male Swiss albino). To be noted: for ED50: ED50, mice (second results table); for Phenylquinone Writhing in Mice % Inhibition: p.o. The protocol: A further test used to determine the utility of the compounds of the present invention is designated: DRUG EFFECTS ON PHENYLQUINONE-INDUCED WRITHING IN MICE […]
The objective of this test is to determine the ability of test drugs to inhibit the nociceptive (pain) response of mice injected with a chemical irritant. This test is a primary screen for both peripheral and centrally acting analgesic drugs.
Male Swiss albino mice (15-25 g). The animals are fasted for 18 hours prior to use but have free access to water.
(§1) Drug Preparation and Administration:
Drugs are dissolved or suspended according to their solubility in 0.5% methyl cellulose or 0.5% Tween 80. They are administered by gastric lavage in a volume of 5 ml/kg. For primary screening all drugs are administered at the arbitrary dosage of 200 mg/kg, p.o. to a group of 10 mice.
A modification of the method of Siegmund at el., Proc. Soc. Exp. Biol. Med., 95, 729-731 (1957) is used. Groups of 5 mice are dosed with the test compound or vehicle control. Sixty minutes later the animals are injected i.p. with 0.3 ml/20 g body weight of a 0.02% solution of phenylquinone (PBQ; 2-phenyl-1,4-benzoquinone) and placed in individual observation boxes. The numer of writhing or abdominal squirming movements made by each mouse during the following 15 min. period is counted. The experiment is repeated with another group of 5 mice and the mean number of writhes per mouse for a group of 10 mice is calculated.
Drug treated and vehicle-treated control groups are compared and the percentage protection conferred by the drug is calculated:
Percentage protection=(c-t)100/c […]
where c=mean number of writhes in the control group where t=mean number of writhes in the test drug group

A further assay has as its system inflamed paw. The assay can be described thus: Paw Pressure Test in the Rat (Freund's adjuvant inflamed paw, pain threshold). The format is in vivo, rat (male Sprague Dawley). Particulars: for ED50: po.
Text: A still further test used to determine the utility of the compounds of the present invention is designated: PAW PRESSURE TEST IN THE RAT
The objective of this test is to assess the potency of peripheral and central acting drugs in inhibiting the reaction of rats to painful stimulation applied to an inflamed paw.
Male Sprague Dawley rats (180-200 g) are used. The animals are fasted overnight prior to drug administration.
as §1
Freund's Complete Adjuvant (FCA) is prepared by suspending 5 mg killed and dried mycobacterium butyricum (Difco) in 1 ml liquid paraffin. The test compounds are dissolved, or suspended with a few drops of Tween 80, in distilled water according to their solubility. They are administered by gastric gavage in a volume of 0.5 ml/100 g body weight to groups of 10 animals.
Ten rats are used per group. The method is essentially that described by Randall, et al., Arch. Int. Pharmacodyn. 111, 409 (1957) and the apparatus which is used to apply pressure to the paw (Analgesy-meter for the rat paw, Ugo Basile from Coulbourn Instruments) is a modification of that described by Gilfoil et al., J. Pharmacol, 142, 1 (1963). The instrument is basically a device which exerts a force that increases at a constant rate. The force is continuously monitored by a pointer moving along a linear scale and is measured in grams. The inflammatory reaction is induced in the left hind paw of rats by injecting 0.1 ml of Freund's adjuvant intradermally. The test compound or vehicle is administered 24 hours after the adjuvant. Prior to drug administration the rats are selected for their paw sensitivity. Rats responding to a pain threshold greater than 10 g applied to the inflamed paw are rejected. The pain threshold (vocalization) is determined 1 and 3 hours later in the inflamed paw and the normal paw of the treated and control groups. The higher of the 2 readings will be considered as representative of the drug effect on the pain threshold.
Presentation of results and Criteria for Activity:
Each animal which has a reading 1.5 times greater than the mean reading of the control-group will be considered as responsive to treatment. The number of animals showing an analgesic effect is then determined in each group.
The ED50 (dose which causes analgesia in 50% of the animals) using at least 3 doses is then determined, by the method described in Litchfield et al., J. Pharmacol. Exp. Ther., 96, 99 (1949).

Where [1] appears, read: ED50, rat (second results table).
The mark [2] stands for this setting: Mus musculus, po, mice (second results table), read-out: Phenylquinone Writhing in Mice percent inhibition.
[3] abbreviates: dose which causes analgesia in 50% of the animals, rat.

As usually defined, the ED50 is the dose at which the effect has come halfway, by size or by number of responders. Take `C=CC[C@@H]1CC[C@](CC)(CC(=O)O)c2[nH]c3c(Cl)ccc(C)c3c21` (relative stereo) [Example 34]: the median effective dose (ED50) with Adjuvant Edema came out at 2.6 mg/kg; in the assay on Phenylquinone Writhing (Mus musculus, po), 7.6 mg/kg; in the assay on inflamed paw (setting [1]) it was 0.46 mg/kg.

With `C=CC[C@H]1CC[C@@](CC)(CC(=O)O)c2[nH]c3c(CC)cccc3c21` [Example 45, (1S-cis)-1,8-Diethyl-2,3,4,9-tetrahydro-4-(2-propenyl)-1H-carbazole-1-acetic Acid Benzenemethanamine Salt (1:1)], the values for the inhibition in vivo at 25 mg/kg in the assay with Adjuvant Edema and in the assay with Phenylquinone Writhing (setting [2]) were 54% and 94%, respectively. Besides, in the assay with inflamed paw (setting [1]), the ED50 was determined as 0.011 mg/kg.

`C=CC[C@@H]1CC[C@](CC)(CC(=O)O)c2[nH]c3c(Cl)cccc3c21` (relative stereo) [Example 16]: the ED50 in the assay with Adjuvant Edema was determined as 13 mg/kg; with Phenylquinone Writhing (Mus musculus, po), 11 mg/kg; in the assay with inflamed paw (setting [1]), 0.89 mg/kg.

Take `C=CC[C@@H]1CC[C@](CC)(CC(=O)O)c2[nH]c3c(C)c(Cl)ccc3c21` (relative stereo) [Example 30, cis-7-chloro-1-ethyl-2,3,4,9-tetrahydro-8-methyl-4-(2-propenyl)-1H-carbazole-1-acetic acid]: the ED50 in the assay with Adjuvant Edema was 15 mg/kg; in the assay with Phenylquinone Writhing (Mus musculus, po), 2.6 mg/kg; in the assay with inflamed paw (setting [1]), 0.007 mg/kg.

Take `C=CCC1CCC(C)(CC(=O)O)c2[nH]c3ccccc3c21` (stereo not shown) [Example 12]: the ED50 turned out to be 6 mg/kg in the assay on Adjuvant Edema; 18.7 mg/kg with Phenylquinone Writhing (Mus musculus, po); 1.9 mg/kg in the assay on inflamed paw (setting [1]).

With `C=CC[C@@H]1CC[C@](CC)(CC(=O)O)c2[nH]c3c(CC)cccc3c21` [Example 44, (1R-cis)-1,8-Diethyl-2,3,4,9-tetrahydro-4-(2-propenyl)-1H-carbazole-1-acetic Acid Benzenemethanamine Salt (1:1)], the inhibition in vivo at 25 mg/kg in the assay on Adjuvant Edema turned out to be 0%; in the assay on Phenylquinone Writhing (setting [2]), 5%. In addition, the “Paw Pressure Test in the Rat percent inhibition” value stood at 30% in the assay with inflamed paw (dose 1 mg/kg, rat) and 40% in the assay on inflamed paw (dose 5 mg/kg, rat).

Regarding `C=CC[C@@H]1CC[C@](CC)(CC(=O)O)c2[nH]c3ccc(CC)cc3c21` (relative stereo) [Example 6], in the assay with Adjuvant Edema, the inhibition in vivo at 10 mg/kg is 36% and the inhibition in vivo at 25 mg/kg was found to be 21%. Also, the median effective dose (ED50) with Phenylquinone Writhing (Mus musculus, po) amounted to 103 mg/kg. The 50% effective dose (ED50) with inflamed paw (setting [1]) came out at 0.01 mg/kg.

Regarding `C=CC[C@@H]1CC[C@](CC)(CC(=O)O)c2[nH]c3c(CCC)cccc3c21` (relative stereo) [Example 5], in the assay with Adjuvant Edema, the inhibition in vivo at 10 mg/kg was found to be 29% and the inhibition in vivo at 25 mg/kg was found to be 39%. In the assay with Phenylquinone Writhing (Mus musculus, po), this compound gave an ED50 of 28.7 mg/kg. For the same compound, the 50% effective dose (ED50) with inflamed paw (setting [1]) stood at 0.009 mg/kg.

In the case of `C=CC[C@@H]1CC[C@](CC)(CC(=O)O)c2[nH]c3ccccc3c21` (relative stereo) [Example 3, cis-1-Ethyl-2,3,4,9-tetrahydro-4-(2-propenyl)-1H-carbazole-1-acetic Acid], in the assay on Adjuvant Edema (10 mg/kg), the “Preventative Adjuvant Edema % Inhibition” value is given as 50%. For the same compound, in the assay on Phenylquinone Writhing (20 mg/kg), the “Phenylquinone Writhing in Mice % Inhibition” value worked out at 50%. The ED50 in the assay with inflamed paw (setting [3]) was determined as 0.01 mg/kg.

`C=CC[C@@H]1CC[C@](CC)(CC(=O)O)c2[nH]c3c(Cl)c(Cl)ccc3c21` (relative stereo) [Example 32, cis-7,8-dichloro-1-ethyl-2,3,4,9-tetrahydro-4-(2-propenyl)-1H-carbazole-1-acetic acid]: in the assay on Adjuvant Edema, the inhibition in vivo at 25 mg/kg stood at 22%. Further, the ED50 in the assay on Phenylquinone Writhing (Mus musculus, po) stood at 2 mg/kg; in the assay with inflamed paw (setting [1]), 0.08 mg/kg.

For the compound `C=CC[C@@H]1CC[C@](CC)(CC(=O)O)c2[nH]c3c(CC)cccc3c21` (relative stereo) [Example 1, cis-1,8-Diethyl-2,3,4,9-tetrahydro-4-(2-propenyl)-1H-carbazole-1-acetic Acid], the entries for the “Preventative Adjuvant Edema % Inhibition” value in the assay on Adjuvant Edema (10 mg/kg), in the assay on Adjuvant Edema (25 mg/kg) and with Adjuvant Edema (50 mg/kg) were 31%, 44% and 38%, respectively. Besides, the “Phenylquinone Writhing in Mice % Inhibition” value was 31% in the assay on Phenylquinone Writhing (10.6 mg/kg), 60-80% in the assay on Phenylquinone Writhing (25 mg/kg) and 94% in the assay on Phenylquinone Writhing (200 mg/kg). In the assay with inflamed paw (setting [3]), the 50% effective dose (ED50) is 0.02 mg/kg.

With `C=CC[C@H]1CC[C@](CC)(CC(=O)O)c2[nH]c3c(CC)cccc3c21` (relative stereo) [Example 4], in the assay with Adjuvant Edema, the inhibition in vivo at 25 mg/kg is 35%. Besides, the inhibition in vivo at 100 mg/kg with Phenylquinone Writhing (Mus musculus, po, dose 100 mg/kg, mice (second results table), read-out: Phenylquinone Writhing in Mice percent inhibition) is 9%. Besides, the ED50 in the assay with inflamed paw (setting [1]) was 0.02 mg/kg.

Consider `C=CC[C@@H]1CC[C@](CC)(CC(=O)O)c2[nH]c3c(C)ccc(C)c3c21` (relative stereo) [Example 31], for which the inhibition in vivo at 25 mg/kg with Adjuvant Edema worked out at 42%. Also, the ED50 was 2.3 mg/kg in the assay with Phenylquinone Writhing (Mus musculus, po) and 0.3 mg/kg with inflamed paw (setting [1]).

For the compound `C=CC[C@@H]1CC[C@](CC)(CC(=O)O)c2[nH]c3cc(CC)ccc3c21` (relative stereo) [Example 7], the inhibition in vivo at 25 mg/kg in the assay with Adjuvant Edema turned out to be 36%. The ED50 in the assay on Phenylquinone Writhing (Mus musculus, po) came to 10 mg/kg; in the assay with inflamed paw (setting [1]), 0.01 mg/kg.
